Measured values published in publication PMC9774648, “Synthesis, Physicochemical Properties and Molecular Docking of New Benzothiazole Derivatives as Antimicrobial Agents Targeting DHPS Enzyme” (Antibiotics, 2022).
≈ marks a conversion by molar mass, not a printed value. Like-named read-outs stand apart in the source and are kept apart here.

How the values were obtained:
S. aureus = experiment: MIC, twofold serial dilution, S. aureus; format: cell-based; details: Staphylococcus aureus; twofold serial dilution in broth, 37 °C 16–20 h; read-out: The Minimum Inhibitory Concentration (MIC), S. aureus
Procedure: The new synthetic compounds, 6a–c, 12a–c, 14a–c, 16a–c and 19a–e, were tested in vitro to evaluate antibacterial activities against Gram-negative and Gram-positive bacteria, such as E. coli (ATCC: 3008), K. pneumonia (ATCC: 4415) and P. aeruginosa (ATCC: 27853), as an example for Gram-negative bacteria, as well as S. aureus (ATCC: 6538) and S. mutans (ATCC: 25175) for Gram-positive bacteria. The antifungal activities were evaluated also for the novel compounds in vitro against C. albicans (ATCC: 10231). The antibacterial and antifungal activities were determined by the agar-diffusion method using gentamicin, ampicillin and sulfadiazine, example of sulfa drug, as standard drugs against Gram-negative and Gram-positive, while nystatin was used as standard drug against the fungal strain. Table 1 summarizes the results for all tested compounds as the average diameter of inhibition zones of microbial growth around the discs in mm ± SD.
For each strain, three to five isolated colonies were selected from the fresh agar plate and were transferred into a tube containing 3–4 mL of sterile broth medium. The bacterial suspension was mixed well and incubated at 35–37 °C for 2–6 h. The turbidity of the bacterial suspension should be equal to or greater than the turbidity of a McFarland Standard 0.5. After that, 1 mg of the tested compound (antimicrobial agent) was dissolved in 1 mL DMSO and two-fold serial dilution was done using broth medium. A fixed volume of the prepared bacterial inoculum was added to each tube and incubated for at 37 °C 16–20 h. The MIC is defined as the lowest concentration of the antimicrobial agent that inhibits visible growth of the tested isolate as observed with the unaided eye.

S. aureus (ATCC: 6538) = experiment: Agar well diffusion, inhibition zone, S. aureus; format: cell-based; details: for zone of inhibition at 15000 µg/mL: Staphylococcus aureus, read-out: Diameter of the Inhibition Zone, S. aureus
S. mutans (ATCC: 25175) = experiment: Agar well diffusion, inhibition zone, S. mutans; format: cell-based; details: for zone of inhibition at 15000 µg/mL: Streptococcus mutans, read-out: Diameter of the Inhibition Zone, S. mutans
S. mutans = experiment: MIC, twofold serial dilution, S. mutans; format: cell-based; details: Streptococcus mutans, read-out: The Minimum Inhibitory Concentration (MIC), S. mutans
E. coli (ATCC: 3008) = experiment: Agar well diffusion, inhibition zone, E. coli; format: cell-based; details: agar well diffusion, 15 mg/mL, 100 μL per well, 37 °C 24 h, mean ± SD, triplicate
[1] = tested on: K. pneumonia (ATCC: 4415); experiment: Agar well diffusion, inhibition zone, K. pneumonia; format: cell-based; details: agar well diffusion, 15 mg/mL, 100 μL per well, 37 °C 24 h, mean ± SD, triplicate
[2] = tested on: P. aeruginosa (ATCC: 27853); experiment: Agar well diffusion, inhibition zone, P. aeruginosa; format: cell-based; details: agar well diffusion, 15 mg/mL, 100 μL per well, 37 °C 24 h, mean ± SD, triplicate
[3] = molecular target: DHPS enzyme (dihydropteroate synthase) (Bacillus anthracis, UniProt Q81VW8); experiment: biochemical
DHPS enzyme (dihydropteroate synthase), sequence (Q81VW8 1-280): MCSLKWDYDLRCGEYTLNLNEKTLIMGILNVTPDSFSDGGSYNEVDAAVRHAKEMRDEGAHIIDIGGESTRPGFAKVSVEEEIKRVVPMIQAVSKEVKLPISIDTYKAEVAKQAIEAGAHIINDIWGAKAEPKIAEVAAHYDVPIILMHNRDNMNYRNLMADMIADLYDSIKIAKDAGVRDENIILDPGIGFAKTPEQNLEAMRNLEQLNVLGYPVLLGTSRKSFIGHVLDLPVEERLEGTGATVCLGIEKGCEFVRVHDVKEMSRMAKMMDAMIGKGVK

[4] = agar well diffusion, 15 mg/mL, 100 μL per well, 37 °C 24 h, mean ± SD, triplicate

SMILES | MIC (S. aureus) [µM] | zone of inhibition at 15000 µg/mL (S. aureus (ATCC: 6538); 24 h) [mm] | zone of inhibition at 15000 µg/mL (S. mutans (ATCC: 25175); 24 h) [mm] | MIC (S. mutans) [µM] | Diameter of the Inhibition Zone, E. coli (E. coli (ATCC: 3008)) | zone of inhibition at 15000 µg/mL (S. aureus (ATCC: 6538); [4]) [mm] | Diameter of the Inhibition Zone, K. pneumonia [1] | zone of inhibition at 15000 µg/mL (S. mutans (ATCC: 25175); [4]) [mm] | Diameter of the Inhibition Zone, P. aeruginosa [2] | melting point [°C] | IC50 [3] [µM] | inhibition at 0.1 µg/mL ([3]; 0.1 μg/mL, read-out: Inhibition % against DHPS enzyme) [%] | inhibition at 1 µg/mL ([3]; 1 μg/mL, read-out: Inhibition % against DHPS enzyme) [%] | inhibition at 10 µg/mL ([3]; 10 μg/mL, read-out: Inhibition % against DHPS enzyme) [%] | inhibition at 100 µg/mL ([3]; 100 μg/mL, read-out: Inhibition % against DHPS enzyme) [%] | Diameter of the Inhibition Zone, S. mutans (S. mutans (ATCC: 25175); [4]) | Diameter of the Inhibition Zone, S. aureus (S. aureus (ATCC: 6538); [4])
CC1(C)S[C@@H]2[C@H](NC(=O)[C@H](N)c3ccccc3)C(=O)N2[C@H]1C(=O)O [Ampicillin, reference compound] | 179 (≈ 62.5 µg/mL) | 22 ± 0.1 | 30 ± 0.5 | 179 (≈ 62.5 µg/mL) |  |  |  |  |  |  |  |  |  |  |  |  | 
Nc1c(C(=O)Nc2ccccc2)cc(-c2nc3ccccc3s2)c(=O)n1NS(=O)(=O)c1ccc(Cl)cc1 [Compound 6a, 2-Amino-5-(benzo[d]thiazole-2-yl)-1-(4-chlorophenylsulfonamido)-6-oxo-N-phenyl-1,6-dihydropyridine-3–carboxamide] | 906 (≈ 500 µg/mL) |  |  |  | - | 19.6 ± 0.6 | ^a - | 12.3 ± 0.6 | - |  |  |  |  |  |  |  | 
Cc1ccc(NC(=O)c2cc(-c3nc4ccccc4s3)c(=O)n(NS(=O)(=O)c3ccc(Cl)cc3)c2N)cc1 [Compound 6c, 2-Amino-5-(benzo[d]thiazole-2-yl)-1-(4-chlorophenylsulfonamido)-6-oxo-N-(p-tolyl)-1,6-dihydropyridine-3–carboxamide] |  |  |  |  | - | 10.6 ± 0.5 | - | 10.6 ± 0.5 | - | 302 to 305 |  |  |  |  |  |  | 
O=c1[nH]c(-c2ccc(Cl)cc2)ccc1-c1nc2ccccc2s1 [Compound 12a, 3-(Benzo[d]thiazol-2-yl)-6-(4-chlorophenyl)pyridin-2(1H)-one] | 369 (≈ 125 µg/mL) |  |  |  | - | 19.6 ± 0.6 | - |  | - |  | 83.6 | 11 | 27 | 44 | 58 | - | 
O=c1[nH]c(-c2ccc(Br)cc2)ccc1-c1nc2ccccc2s1 [Compound 12b, 3-(Benzo[d]thiazol-2-yl)-6-(4-bromophenyl)pyridin-2(1H)-one] | 2610 (≈ 1000 µg/mL) |  |  |  | - | 17.6 ± 0.6 | - |  | - | 345 to 346 |  |  |  |  |  | - | 
COc1ccc(-c2ccc(-c3nc4ccccc4s3)c(=O)[nH]2)cc1 [Compound 12c, 3-(Benzo[d]thiazol-2-yl)-6-(4-methoxyphenyl)pyridin-2(1H)-one] |  |  |  |  | - | 15.6 ± 0.5 | - | 11.3 ± 0.5 | - |  |  |  |  |  |  |  | 
O=C(NNS(=O)(=O)c1ccccc1)C(=NNc1ccc(Cl)cc1)c1nc2ccccc2s1 [Compound 19b, N′-(2-(Benzo[d]thiazol-2-yl)-2-(2-(4-chlorophenyl)hydrazono)acetyl)benzene-sulfonohydrazide] |  |  |  |  | - | 11.6 ± 0.5 | - |  | - | 265 to 267 |  |  |  |  |  | - | 
Cc1ccc(N/N=C(/C(=O)NNS(=O)(=O)c2ccc(C)cc2)c2nc3ccccc3s2)cc1 [Compound 19e, N′-(2-(Benzo[d]thiazol-2-yl)-2-(2-(4-methylphenyl)hydrazono)acetyl)-4-methylbenzenesulfono-hydrazide] |  |  |  |  | - |  | - |  | - | 285 to 286 |  |  |  |  |  | - | -
